Source: publication PMC12071365, “Discovery of Boronic Acids-Based β-Lactamase Inhibitors Through In Situ Click Chemistry” (International Journal of Molecular Sciences, 2025)
Values belong to the molecule of their own block, whether it stands above or below them.

Legend:
[1] = biological target: T1, NDM-1 (Klebsiella pneumoniae, UniProt C7C422); conditions: read-out: KM substrate, HEPES 20 mM pH 7.0 + 20 µM Zn
Description: (§1) The β-lactamases used in the present study were from a Clinical Biochemistry Laboratory collection (Department of Biotechnological and Applied Clinical Sciences, University of L’Aquila, L’Aquila, Italy). […] The concentration of each enzyme was determined by a Bradford assay.

[2] = Stability in phosphate buffer by 1H NMR; assay type: physicochemical
Description: Previously, even a low level of affinity was reported to be sufficient for the target-templated reaction. Therefore, to enable in situ click chemistry within the β-lactamase’s binding pocket, a series of bifunctional “warheads” displaying two defined features were designed. Firstly, the presence of the boronic acid moiety serves as an anchor to the SBLs catalytic serine. Secondly, the azido functionalisation guarantees the clickable building block for generation of bioactive triazoles within the target active site. Thus, one 2-azido-1-acylamino-ethaneboronic acid and three azidomethyl-phenylboronic acids were synthesised and characterised (Figure 3). […] Herein, the amide side chain from cephalothin is well known to interact with various β-lactamases through van der Waals and H-bonding interactions and can aid the process of recognition within the target. […] Other warheads inspired by previously developed acyclic boronic acids were not considered in this manuscript and will be explored in future works.

[3] = tested on: C[C@@H](O)[C@H]1C(=O)N2C(C(=O)O)=C(S[C@@H]3CN[C@H](C(=O)N(C)C)C3)[C@H](C)[C@H]12; test: purified protein, by the assay type; conditions: other: VIM-1, HEPES 20 mM pH 7.0 + 20 µM Zn
[4] = biological target: SHV-12 (Klebsiella pneumoniae, UniProt P0AD64, E235K/G234S/L31Q); test: % inhibition at fixed concentration; assay type: biochemical; conditions: SHV-12, class A; inhibitor 200 µM; substrate NCF
[5] = biological target: ADC-25 (Acinetobacter baumannii, UniProt A8QIF8); test: % inhibition at fixed concentration; assay type: biochemical
Description: (§2) Selection of an appropriate warhead-bearing reagent is crucial for achieving a successful in situ click chemistry. Thus, we assessed the inhibitory activity of the selected warheads against a pool of different β-lactamases to verify their binding specificity for the target. The affinity (inhibitory ability) of 2-4 against 12 representative β-lactamases from class A, B, C, and D was assessed as the percentage of inhibition at a fixed concentration of 200 µM (Table 1).
as §1
(§3) The plot v0/vi versus [I] yielded a straight line of slope KM/(KM + S) × Ki.
(§4) For the β-lactamases test at a fixed concentration previously reported in Table 1, the following conditions were applied (Table 3): […]

[6] = biological target: CMY-2 (Klebsiella pneumoniae, UniProt Q48434); test: % inhibition at fixed concentration; assay type: biochemical
Description: as §2, §1, §3, §4

[7] = biological target: T2, CTX-M-15 (Escherichia coli, UniProt Q9EXV5); test: % inhibition at fixed concentration; assay type: biochemical
T2 construct: made in house
Description: as §2, §1, §3, §4

[8] = biological target: T3, IMP-1 (Serratia marcescens, UniProt P52699); test: % inhibition at fixed concentration; assay type: biochemical
T3 construct: made in house
Description: as §2, §1, §3, §4

[9] = biological target: T4, KPC-2 (Klebsiella pneumoniae, UniProt Q9F663); test: % inhibition at fixed concentration; assay type: biochemical
T4 construct: made in house
Description: as §2, §1, §3, §4

[10] = biological target: KPC-53 (Klebsiella pneumoniae, UniProt Q9F663, DUP166-167/H272Y); test: % inhibition at fixed concentration; assay type: biochemical
Description: as §2, §1, §3, §4

[11] = biological target: OXA-24 (Acinetobacter baumannii, UniProt Q8RLA6); test: % inhibition at fixed concentration; assay type: biochemical
Description: as §2, §1, §3, §4

[12] = biological target: OXA-48 (Klebsiella pneumoniae, UniProt Q6XEC0); test: % inhibition at fixed concentration; assay type: biochemical; conditions: OXA-48, class D; inhibitor 200 µM; substrate IMI
Description: as §2, §1, §3, §4

[13] = biological target: T5, VIM-1 (Pseudomonas aeruginosa, UniProt A0A0F7KYQ8); test: % inhibition at fixed concentration; assay type: biochemical
T5 construct: made in house
Description: as §2, §1, §3, §4

[14] = biological target: T4, KPC-2; design: method as in PMID 35792385; conditions: ref [58]; cited from earlier work
[15] = biological target: AmpC (Escherichia coli, UniProt P00811); test: % inhibition at fixed concentration; assay type: biochemical; design: made in house
Description: Selection of an appropriate warhead-bearing reagent is crucial for achieving a successful in situ click chemistry. Thus, we assessed the inhibitory activity of the selected warheads against a pool of different β-lactamases to verify their binding specificity for the target. […]
as §1, §3, §4

[16] = biological target: T1, NDM-1; test: % inhibition at fixed concentration; assay type: biochemical; design: made in house
Description: as §2, §1, §3, §4

[17] = biological target: T4, KPC-2; design: method as in PMID 26102369, PMID 34970229, PMID 37358467, PMID 26729491; conditions: ref [17],[19],[35],[36]; cited from earlier work
[18] = biological target: ADC-7; design: method as in PMID 26102369, PMID 34970229, PMID 37358467, PMID 26729491; conditions: ref [17],[19],[35],[36]; cited from earlier work

T2 sequence (Q9EXV5 entry or part of it): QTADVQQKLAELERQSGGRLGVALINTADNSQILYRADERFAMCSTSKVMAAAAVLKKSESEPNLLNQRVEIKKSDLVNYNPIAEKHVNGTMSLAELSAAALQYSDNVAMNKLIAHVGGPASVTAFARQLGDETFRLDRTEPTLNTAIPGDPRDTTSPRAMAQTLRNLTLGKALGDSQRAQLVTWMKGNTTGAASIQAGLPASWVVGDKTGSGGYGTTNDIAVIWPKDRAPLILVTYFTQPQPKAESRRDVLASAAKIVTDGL
AmpC, sequence (P00811 20-377): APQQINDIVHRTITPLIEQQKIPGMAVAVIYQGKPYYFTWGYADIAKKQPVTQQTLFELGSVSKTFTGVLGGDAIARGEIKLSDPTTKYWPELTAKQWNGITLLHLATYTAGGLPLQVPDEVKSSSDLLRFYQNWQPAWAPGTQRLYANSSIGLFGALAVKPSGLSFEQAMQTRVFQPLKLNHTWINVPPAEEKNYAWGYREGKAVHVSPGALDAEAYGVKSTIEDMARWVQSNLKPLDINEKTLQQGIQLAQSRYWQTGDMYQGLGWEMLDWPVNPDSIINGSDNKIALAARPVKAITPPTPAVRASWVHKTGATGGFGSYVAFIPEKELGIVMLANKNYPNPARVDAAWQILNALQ

Molecule: C[C@@H](O)[C@H]1C(=O)N2C(C(=O)O)=C(S[C@@H]3CN[C@H](C(=O)N(C)C)C3)[C@H](C)[C@H]12 [MPM, Meropenem]
Km [1]: 80 ± 1 µM

stability in phosphate buffer [2]: partially degrades
Molecule: [N-]=[N+]=NCC(NC(=O)Cc1cccs1)B(O)O (stereo not shown) [compound 1]

Molecule: VIM-1 (Pseudomonas aeruginosa PAO1)
Km [3]: 130 ± 4 µM µM

Molecule: [N-]=[N+]=NCc1ccc(B(O)O)cc1 [compound 4, (4-(azidomethyl)phenyl)boronic acid]
% of inhibition [4]: 48%
inhibition at 200 µM [5]: 46%
inhibition at 200 µM [6]: 67%
inhibition at 200 µM [7]: 22%
inhibition at 200 µM [8]: 22%
inhibition at 100 µM [9]: 72%
inhibition at 200 µM [10]: 55%
inhibition at 200 µM [11]: 26%
inhibition at 200 µM [12]: < 1%
inhibition at 200 µM [13]: 33%
activity vs. KPC-2 [14]: sub-µM
inhibition at 100 µM [15]: 81%
inhibition at 200 µM [16]: 24%

Molecule: O=C(Cc1cccs1)NC(Cn1cc(C(=O)O)nn1)B(O)O (stereo not shown) [S02030]
IC50 [17]: 80 nM
Ki [18]: 45 nM

Molecule: Nc1nnc(SCC(=O)N[C@@H](Cn2cc(C(=O)O)nn2)B(O)O)s1 [MB076]
Ki [18]: 210 nM
